Measured values published in US11617777B2, “Cytotoxic and anti-mitotic compounds, and methods of using the same” (ZYMEWORKS BC INC., priority 2013, dated 2023).

test system: Jurkat cells; assay: Cytotoxicity of compounds, CellTiter-Glo; assay type: cell-based, Human; settings: Homo sapiens, Jurkat, Table 3; Cytotoxicity of Compounds on Jurkat Cells; read-out: EC50
Text: Cell lines used: Human T-cell leukemia cell line Jurkat (ATCC: TIB-152); HCC1954 (ATCC: CRL. 2338); Human Pancreatic cells lines: AsPC-1 (ATCC: CRL-1682), BxPC-3 (ATCC: CRL.1687), HPAF-II (ATCC: CRL.1997), MiaPaCa2 (ATCC: CRL.1420), PANC-1 (ATCC: CRL.1469), Capan-1 (ATCC: HTB-79), Capan-2 (ATCC: HTB-80) and the Human gastric carcinoma cell line NCI-N87 (ATCC: CRL. 5822); AML-193 (ATCC: CRL.9589), CCRF-CEM (ATCC: CCL-119), DU145 (ATCC: HTB-81), PC-3 (ATCC: CRL.1435), A-431 (ATCC: CRL.1555), HT-29 (ATCC: HTB-38), A-172 (ATCC: CRL.1620), NCI-H358 (ATCC: CRL.5807), A549 (ATCC: CCL-185), Colo-205 (ATCC: CCL-222), MDA-MB-231 (ATCC: HTB-26), OVCAR-3 (ATCC: HTB-161), OV-90 (ATCC: CRL.11732), OE19 (Sigma: 96071721), RT 112/84 (Sigma: 85061106).
On the day prior to adding compounds, HCC1954 AsPC-1, BxPC-3, HPAF-II, MiaPaCa2, PANC-1, Capan-1, Capan-2 and NCI-N87 cells were added to opaque-walled 96-well tissue culture-treated microtiter plates using complete growth medium at a density of 2500 cells/100 microlitre (uL) of medium. These adherant cell lines cells were incubated for one night at 37° C./5% CO2 to allow the cells to attach to the microtiter plate surface. On the day that compounds were added, Jurkat cells are added to separate 96-well microtiter plates at 2500 cells/100 uL using the same growth medium as HCC1954. Compound were first serially diluted using dimethyl sulfoxide, and then the prepared dilutions are added to complete growth medium at five-times the final concentration—compounds were then titrated 1:3, eight steps. A control with no compound (growth medium alone) was included on each microtiter plate in sextuplicate. The prepared compounds titrations were added (twenty-five uL/well) in triplicate. The cells and compound titrations were incubated at 37° C./5% CO2 for three nights. After the incubation, cell viability is measured using CellTiter-Glo® reagent by adding thirty uL of prepared CellTiter-Glo® to each assay well. The assay is incubated for at least twenty minutes in the dark prior to measuring emitted luminescence using a microplate luminometer (500 ms integration time). The collected relative luminescence units (RLU) are converted to % cytotoxicity using the Growth medium alone control mentioned above (% Cytotoxicity=1−[Well RLU/average medium alone control RLU]).
GraphPad Prism was used for generation of EC50 values using three parameter non-linear regression curve fitting.

With `CN[C@H](C(=O)N[C@H](C(=O)N(C)[C@H](/C=C(\C)C(=O)NS(=O)(=O)Cc1cccnc1)C(C)C)C(C)(C)C)C(C)(C)c1ccccc1` [Compound 45, (S,E)-2,5-dimethyl-N-(pyridin-3-ylmethylsulfonyl)-4-((S)—N,3,3-trimethyl-2-((S)-3-methyl-2-(methylamino)-3-phenylbutanamido)butanamido)hex-2-enamide] as the molecule, how does the EC50 read?
The EC50 was 0.869 nM.

For `CN[C@H](C(=O)N[C@H](C(=O)N(C)[C@H](/C=C(\C)C(=O)NS(=O)(=O)c1cccc(NC(=O)C(F)(F)F)c1)C(C)C)C(C)(C)C)C(C)(C)c1ccccc1` [Compound 47, (S,E)-2,5-dimethyl-N-(3-(2,2,2-trifluoroacetamido)phenylsulfonyl)-4-((S)—N,3,3-trimethyl-2-((S)-3-methyl-2-(methylamino)-3-phenylbutanamido)butanamido)hex-2-enamide], which EC50 is on record?
Its EC50 is 0.261 nM.

For `CN[C@H](C(=O)N[C@H](C(=O)N(C)[C@H](/C=C(\C)C(=O)NS(=O)(=O)c1cccc(N)c1)C(C)C)C(C)(C)C)C(C)(C)c1ccccc1` [Compound 48, (S,E)-N-(3-aminophenylsulfonyl)-2,5-dimethyl-4-((S)—N,3,3-trimethyl-2-((S)-3-methyl-2-(methylamino)-3-phenylbutanamido)butanamido)hex-2-enamide], which EC50 is on record?
Its EC50 is 0.208 nM.

How did the EC50 turn out when `CN[C@H](C(=O)N[C@H](C(=O)N(C)[C@H](/C=C(\C)C(=O)NS(=O)(=O)c1cccnc1)C(C)C)C(C)(C)C)C(C)(C)c1ccccc1` [Compound 49, (S,E)-2,5-dimethyl-N-(pyridin-3-ylsulfonyl)-4-((S)—N,3,3-trimethyl-2-((S)-3-methyl-2-(methylamino)-3-phenylbutanamido)butanamido)hex-2-enamide] was run?
The EC50 was 2.5 nM.

Which EC50 does the source give for `CN[C@H](C(=O)N[C@H](C(=O)N(C)[C@H](/C=C(\C)C(=O)NS(=O)(=O)c1cccs1)C(C)C)C(C)(C)C)C(C)(C)c1ccccc1` [Compound 50, (S,E)-2,5-dimethyl-N-(thiophen-2-ylsulfonyl)-4-((S)—N,3,3-trimethyl-2-((S)-3-methyl-2-(methylamino)-3-phenylbutanamido)butanamido)hex-2-enamide] here?
The EC50 was 0.171 nM.

`CN[C@H](C(=O)N[C@H](C(=O)N(C)[C@H](/C=C(\C)C(=O)NS(=O)(=O)c1ccc(O)cc1)C(C)C)C(C)(C)C)C(C)(C)c1ccccc1` [Compound 51, (S,E)-N-(4-hydroxyphenylsulfonyl)-2,5-dimethyl-4-((S)—N,3,3-trimethyl-2-((S)-3-methyl-2-(methylamino)-3-phenylbutanamido)butanamido)hex-2-enamide] was tested. Which EC50 did it give?
The EC50 was 0.247 nM.

For `CN[C@H](C(=O)N[C@H](C(=O)N(C)[C@H](/C=C(\C)C(=O)NS(=O)(=O)Cc1ccc(C2(NC(=O)C(F)(F)F)CC2)cc1)C(C)C)C(C)(C)C)C(C)(C)c1ccccc1` [Compound 57, (S,E)-2,5-dimethyl-N-(4-(1-(2,2,2-trifluoroacetamido)cyclopropyl)benzylsulfonyl)-4-((S)—N,3,3-trimethyl-2-((S)-3-methyl-2-(methylamino)-3-phenylbutanamido)butanamido)hex-2-enamide], which EC50 is on record?
The EC50 was 0.566 nM.

How did the EC50 turn out when `CN[C@H](C(=O)N[C@H](C(=O)N(C)[C@H](/C=C(\C)C(=O)NS(=O)(=O)Cc1ccc(C2(N)CC2)cc1)C(C)C)C(C)(C)C)C(C)(C)c1ccccc1` [Compound 58, (S,E)-N-(4-(1-aminocyclopropyl)benzylsulfonyl)-2,5-dimethyl-4-((S)—N,3,3-trimethyl-2-((S)-3-methyl-2-(methylamino)-3-phenylbutanamido)butanamido) hex-2-enamide] was run?
The EC50 was 0.816 nM.

same assay, conditions: Homo sapiens, Jurkat, Table 6; Compound Cytotoxicity on Jurkat; read-out: EC50

Which EC50 does the source give for `CN[C@H](C(=O)N[C@H](C(=O)N(C)[C@H](/C=C(\C)C(=O)NS(=O)(=O)Cc1cccnc1)C(C)C)C(C)(C)C)C(C)(C)c1ccccc1` [Compound 45, (S,E)-2,5-dimethyl-N-(pyridin-3-ylmethylsulfonyl)-4-((S)—N,3,3-trimethyl-2-((S)-3-methyl-2-(methylamino)-3-phenylbutanamido)butanamido)hex-2-enamide] here?
The EC50 was 0.373 nM.

For `CN[C@H](C(=O)N[C@H](C(=O)N(C)[C@H](/C=C(\C)C(=O)NS(=O)(=O)c1ccc(C2(NC(=O)C(F)(F)F)CC2)cc1)C(C)C)C(C)(C)C)C(C)(C)c1ccccc1` [Compound 62, (S,E)-2,5-dimethyl-N-(4-(1-(2,2,2-trifluoroacetamido)cyclopropyl)phenylsulfonyl)-4-((S)—N,3,3-trimethyl-2-((S)-3-methyl-2-(methylamino)-3-phenylbutanamido)butanamido)hex-2-enamide], which EC50 is on record?
Its EC50 is 1.2 nM.

With `CN[C@H](C(=O)N[C@H](C(=O)N(C)[C@H](/C=C(\C)C(=O)NS(=O)(=O)Cc1ccccc1C)C(C)C)C(C)(C)C)C(C)(C)c1ccccc1` [Compound 64, (S,E)-2,5-dimethyl-N-(2-methylbenzylsulfonyl)-4-((S)—N,3,3-trimethyl-2-((S)-3-methyl-2-(methylamino)-3-phenylbutanamido)butanamido)hex-2-enamide] as the molecule, how does the EC50 read?
Its EC50 is 0.138 nM.

How did the EC50 turn out when `CN[C@H](C(=O)N[C@H](C(=O)N(C)[C@H](/C=C(\C)C(=O)NS(=O)(=O)Cc1ccc(Cl)cc1)C(C)C)C(C)(C)C)C(C)(C)c1ccccc1` [Compound 66, (S,E)-N-(4-chlorobenzylsulfonyl)-2,5-dimethyl-4-((S)—N,3,3-trimethyl-2-((S)-3-methyl-2-(methylamino)-3-phenylbutanamido)butanamido)hex-2-enamide] was run?
The EC50 was 0.145 nM.

How did the EC50 turn out when `CN[C@H](C(=O)N[C@H](C(=O)N(C)[C@H](/C=C(\C)C(=O)NS(=O)(=O)CCc1ccccc1)C(C)C)C(C)(C)C)C(C)(C)c1ccccc1` [Compound 67, (S,E)-2,5-dimethyl-N-(phenethylsulfonyl)-4-((S)—N,3,3-trimethyl-2-((S)-3-methyl-2-(methylamino)-3-phenylbutanamido)butanamido)hex-2-enamide] was run?
Its EC50 is 0.562 nM.

Which EC50 does the source give for `CN[C@H](C(=O)N[C@H](C(=O)N(C)[C@H](/C=C(\C)C(=O)NS(=O)(=O)Cc1ccc(Br)cc1)C(C)C)C(C)(C)C)C(C)(C)c1ccccc1` [Compound 68, (S,E)-N-(4-bromobenzylsulfonyl)-2,5-dimethyl-4-((S)—N,3,3-trimethyl-2-((S)-3-methyl-2-(methylamino)-3-phenylbutanamido)butanamido)hex-2-enamide] here?
Its EC50 is 0.337 nM.

For `CN[C@H](C(=O)N[C@H](C(=O)N(C)[C@H](/C=C(\C)C(=O)NS(=O)(=O)Cc1ccc(C#N)cc1)C(C)C)C(C)(C)C)C(C)(C)c1ccccc1` [Compound 69, (S,E)-N-(4-cyanobenzylsulfonyl)-2,5-dimethyl-4-((S)—N,3,3-trimethyl-2-((S)-3-methyl-2-(methylamino)-3-phenylbutanamido)butanamido)hex-2-enamide], which EC50 is on record?
The EC50 was 1.56 nM.

How did the EC50 turn out when `CN[C@H](C(=O)N[C@H](C(=O)N(C)[C@H](/C=C(\C)C(=O)NS(=O)(=O)Cc1cccc([N+](=O)[O-])c1)C(C)C)C(C)(C)C)C(C)(C)c1ccccc1` [Compound 70, (S,E)-2,5-dimethyl-N-(3-nitrobenzylsulfonyl)-4-((S)—N,3,3-trimethyl-2-((S)-3-methyl-2-(methylamino)-3-phenylbutanamido)butanamido)hex-2-enamide] was run?
Its EC50 is 0.856 nM.

Which EC50 does the source give for `CN[C@H](C(=O)N[C@H](C(=O)N(C)[C@H](/C=C(\C)C(=O)NS(=O)(=O)Cc1ccc(C(C)(C)C)cc1)C(C)C)C(C)(C)C)C(C)(C)c1ccccc1` [Compound 71, (S,E)-N-(4-tert-butylbenzylsulfonyl)-2,5-dimethyl-4-((S)—N,3,3-trimethyl-2-((S)-3-methyl-2-(methylamino)-3-phenylbutanamido)butanamido)hex-2-enamide] here?
The EC50 was 1.02 nM.

How did the EC50 turn out when `CN[C@H](C(=O)N[C@H](C(=O)N(C)[C@H](/C=C(\C)C(=O)NS(=O)(=O)CCc1ccc([N+](=O)[O-])cc1)C(C)C)C(C)(C)C)C(C)(C)c1ccccc1` [Compound 73, (S,E)-2,5-dimethyl-N-(4-nitrophenethylsulfonyl)-4-((S)—N,3,3-trimethyl-2-((S)-3-methyl-2-(methylamino)-3-phenylbutanamido)butanamido)hex-2-enamide] was run?
Its EC50 is 2.68 nM.

same assay, conditions: Table 6; Compound Cytotoxicity on Jurkat; read-out: EC50

For `CN[C@H](C(=O)N[C@H](C(=O)N(C)[C@H](/C=C(\C)C(=O)NS(=O)(=O)Cc1ccccc1[N+](=O)[O-])C(C)C)C(C)(C)C)C(C)(C)c1ccccc1` [Compound 72, (S,E)-2,5-dimethyl-N-(2-nitrobenzylsulfonyl)-4-((S)—N,3,3-trimethyl-2-((S)-3-methyl-2-(methylamino)-3-phenylbutanamido)butanamido)hex-2-enamide], which EC50 is on record?
The EC50 was 0.531 nM.
